Legend:
[1] = test system: rat's sciatic nerve; assay: Local anesthetic effect after injection near the rat sciatic nerve (von Frey stimulation; Postural Extensor Thrust for motor function); type: in vivo; settings: SD rats, 0.5 mL near sciatic nerve, compounds 20 mmol/mL; for Duration of motor block: Postural Extensor Thrust; for Duration of motor block / Duration of sensory block: levobupivacaine 0.75%, lidocaine 2%; for Local anesthesia onset time: levobupivacaine 0.75% (22 mmol/L), lidocaine 2% (74 mmol/L); for Duration of sensory block: von Frey
Procedure: Dosage: for lidocaine group, lidocaine was formulated with distilled water into a solution at the concentration of 2% (74 mmol/L); for levobupivacaine group, levobupivacaine was formulated with distilled water into a solution at the concentration of 0.75% (22 mmol/L); the compound of the present invention was formulated with distilled water into a solution at the concentration of […].
The injection volume for each rat was 0.5 mL, which was guided by a nerve locator and injected near the rat's sciatic nerve. Using von Frey stimulator, the rats were stimulated the soles of the feet in the injected side, to observe the effect of local anesthesia. Meanwhile, Postural Extensor Thrust (PET) was used to evaluate the motor function of the rat: the rat was lifted vertically and the hindlimb in the injected side pedaled on the platform of the electronic balance. […] When the limb was completely paralyzed, the reading was the limb's own weight, about 20 g. If the measured value was more than half of the difference between the baseline and the limb weight, the motor function was regarded as recovery, and if the value was […], the motor function was regarded as loss.

[2] = test system: back skin of SD rat; assay: Local anesthetic effect by subcutaneous infiltration (back skin, Von Frey fiber 100 g); type: in vivo; settings: SD rats, 0.5 mL subcutaneous in saline; compounds 6 mmol/L, controls 0.75% (22 mmol/L) and 2% (74 mmol/L)
Procedure: After the back of SD rat weighing 250-300 g (half female and half male) was shaved and disinfected, a circle with a diameter of about 1.5 cm was drawn on the side of the exposed back, and the circle is divided into 6 equal parts. […] Among the Von Frey fiber yarns, the one with a strength of 100 g was bound to the needle for local skin stimulation. One minute After the drug was injected, the above method was used to stimulate in 6 divisions. […] If back skin contraction was observed, the local anesthetic effect was considered as loss. […] Each compound was tested with 10 rats.

[3] = QX314 with the addition of surfactants (Kohane, PNAS 2010); cited from earlier work

Row | Structure (SMILES) | Duration of motor block [1] | Local anesthesia onset time [1] | Duration of sensory block [1] | Duration of local anesthesia (median) [2] | Local anesthesia onset time (median) [2] | duration of local anesthesia [3]
1 | CCCCCCCCCC[N+](CO)(CCOCCN1CCCCC1C(=O)Nc1c(C)cccc1C)CC(=O)Nc1c(C)cccc1C (stereo not drawn) [Example 72 product] | 10 h | 1 min | 65 h | 72 h | 1 min | 
2 | CCCCCC[N+](CCCCCC)(CCCN1CCCCC1C(=O)Nc1c(C)cccc1C)CC(=O)Nc1c(C)cccc1C (stereo not drawn) [Example 73 product] | 20 h | 3 min | 51 h | 59 h | 2 min | 
3 | CCCCCCCC[N+](CCCCCCC)(CCCN1CCCCC1C(=O)Nc1c(C)cccc1C)CC(=O)Nc1c(C)cccc1C (stereo not drawn) [Example 74 product] | 17 h | 1 min | 72 h | 56 h | 1 min | 
4 | CCCCCCC[N+](CCCCC)(CCOCCN1CCCCC1C(=O)Nc1c(C)cccc1C)CC(=O)Nc1c(C)cccc1C (stereo not drawn) [Example 76 product] | 14 h | 3 min | 59 h | 64 h | 2 min | 
5 | CC[N+](CC)(CC)CC(=O)Nc1c(C)cccc1C [QX314] |  |  |  |  |  | more than 8 hours

From patent publication US20220135526A1, “QUATERNARY AMMONIUM SALT COMPOUND, PREPARATION METHOD THEREFOR AND USE THEREOF” (WEST CHINA HOSPITAL, SICHUAN UNIVERSITY, priority 2019, published 2022)
